Source: the supplement of paper PMC10307832

Assays:
Assay in all cases: relative viability (nuclei count vs DMSO), 5 days (fraction); higher = more cells survive
Ponatinib + Olaparib = compound: Cc1ccc(C(=O)Nc2ccc(CN3CCN(C)CC3)c(C(F)(F)F)c2)cc1C#Cc1cnc2cccnn12 [Ponatinib] + O=C(c1cc(Cc2n[nH]c(=O)c3ccccc23)ccc1F)N1CCN(C(=O)C2CC2)CC1 [Olaparib] (partner 8 µM)
In short: (§1)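 After 5 days of treatment, lung cancer cells in 1536-well plates were fixed and stained in a single step (final 0.05% Triton X-100, 1% formaldehyde, 1 ug/ml Hoechst) and their nuclei counted on 4× images. Treatment had been applied by pin tool the day after seeding as one drug alone or as a fixed anchor-drug dose with five library-drug doses (not always all listed) in √10 steps. Relative viability is the nuclei count of treated wells divided by that of vehicle wells, and values are medians of duplicate plates.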

Ponatinib + Pemetrexed = compound: Cc1ccc(C(=O)Nc2ccc(CN3CCN(C)CC3)c(C(F)(F)F)c2)cc1C#Cc1cnc2cccnn12 [Ponatinib] + Nc1nc2[nH]cc(CCc3ccc(C(=O)N[C@@H](CCC(=O)O)C(=O)O)cc3)c2c(=O)[nH]1 [Pemetrexed] (partner 0.2 µM)
In short: as §1

Pazopanib + Dasatinib = compound: Cc1ccc(Nc2nccc(N(C)c3ccc4c(C)n(C)nc4c3)n2)cc1S(N)(=O)=O [Pazopanib] + Cc1nc(Nc2ncc(C(=O)Nc3c(C)cccc3Cl)s2)cc(N2CCN(CCO)CC2)n1 [Dasatinib] (partner 0.075 µM)
In short: as §1

Ponatinib + Alpelisib = compound: Cc1ccc(C(=O)Nc2ccc(CN3CCN(C)CC3)c(C(F)(F)F)c2)cc1C#Cc1cnc2cccnn12 [Ponatinib] + Cc1nc(NC(=O)N2CCC[C@H]2C(N)=O)sc1-c1ccnc(C(C)(C)C(F)(F)F)c1 [Alpelisib] (partner 2 µM)
In short: as §1

UMC-11
relative viability (Ponatinib + Olaparib; first compound 0.002 µM): 0.405 | relative viability (Ponatinib + Olaparib; first compound 0.006325 µM): 1.01 | relative viability (Ponatinib + Olaparib; first compound 0.06325 µM): 0.338 | relative viability (Ponatinib + Olaparib; first compound 0.2 µM): 0.366 | relative viability (Ponatinib + Pemetrexed; first compound 0.002 µM): 0.794 | relative viability (Ponatinib + Pemetrexed; first compound 0.006325 µM): 0.821 | relative viability (Ponatinib + Pemetrexed; first compound 0.06325 µM): 0.862 | relative viability (Ponatinib + Pemetrexed; first compound 0.2 µM): 0.685 | relative viability (Pazopanib + Dasatinib; first compound 0.01 µM): 0.455 | relative viability (Pazopanib + Dasatinib; first compound 0.03162 µM): 0.459 | relative viability (Pazopanib + Dasatinib; first compound 0.1 µM): 0.568 | relative viability (Pazopanib + Dasatinib; first compound 0.3162 µM): 0.467 | relative viability (Pazopanib + Dasatinib; first compound 1 µM): 0.432 | relative viability (Ponatinib + Alpelisib; first compound 0.002 µM): 1.07 | relative viability (Ponatinib + Alpelisib; first compound 0.006325 µM): 1.04 | relative viability (Ponatinib + Alpelisib; first compound 0.06325 µM): 1.01 | relative viability (Ponatinib + Alpelisib; first compound 0.2 µM): 0.951
